The values below come from patent US20090149387A1, “Use of GLP-1 Peptides” (Novo Nordisk A/S, priority 1996, published 2009).

No end group written: not given here.

In one test the test system is rats. The settings on record: Tang-Christensen et al. 1996, route not stated; cited from earlier work.
Test [1] concerns Mice. Nature of the test: Appetite suppression in mice by subcutaneous synthetic GLP-1(7-36)amide: Complan consumption (Example 4). The class given is in vivo. To be noted: p<0.001. As to the method: The test method was as described in Example 3 except that the mice were pre-exposed to formula milk (Complan®—a nutritionally complete infant milk substitute) for one day, then fasted one day. On the test day, consumption of Complan® was measured for each mouse during a 10 min period.
Mice were tested for appetite suppression by subcutaneous injection of GLP-1(7-36)amide dissolved in phosphate buffered saline.

Test [2] has as its system Mice. Briefly: Appetite suppression in mice: sucrose consumption measured immediately after intraperitoneal injection (Example 2). The settings on record: 85 micrograms (equivalent to 3.4 mg/kg) intraperitoneally, tested immediately after injection, 10 minute period, versus vehicle, p-value 0.002. The class given is in vivo. The procedure: Mice were deprived of their normal food for two days and given free access to a 20% sucrose solution on the first day of food deprivation. After the two day food deprivation period, the mice were injected intraperitoneally with 0.5 ml of a solution containing the test substance. Immediately after injection, individual mice were placed in one of eight 15 cm square test boxes with a stainless steel grid floor and a glass drinking tube which projected into the box. […] Consumption of the sucrose solution was measured over a 10 minute period by electronically recording the total amount of contact with the sucrose solution during the test session. The degree of appetite suppression produced by a given test substance was determined by statistical comparison of the mean duration of sucrose consumption by control (vehicle treated) mice with that of mice treated with a test substance. The degree of appetite suppression in a treated group of mice was expressed as percent difference between the test and control group's response duration means. […]

A further test relates to Healthy human volunteers. Briefly: Effect of iv infused GLP-1(7-36)amide on food intake, satiety, hunger, fullness and appetite in normal human subjects (double-blind crossover). Type of test: in vivo. The settings on record: iv infusion 50 pmol/(kg·h) 9.00-15.00, 20 healthy subjects, versus saline. The text has this: Healthy human volunteers (20 subjects) were in a double-blind crossover trial given an iv infusion of 50 pmol/(kg·h) of GLP-1(7-36)amide or saline on separate, but otherwise identical experimental days. The infusion was started at 9.00 and lasted until 15.00. At 9.45 the subjects received a fixed amount of breakfast and at 14.15 they had lunch of an identical composition but ad libitum. The subjects rated their feeling of satiety, hunger, fullness and appetite on a visual analogue scale every half hour. The results are given below:
The energy intake of each subjects was measured. The intakes were 3.9 MJ with GLP-1 and 4.3 MJ with Saline resulting in a p-value of 0.009.

In the case of “GLP-1(1-36)amide (HDEFERHAEGTFTSDVSSYLEGQAAKEFIAWLVKGR-NH2; UniProt P01275 92-127, looked up, fragment) [GLP-1 fragment 1-36, C-terminal amide; literature result]”, in the test with rats, the “Effect on food intake” value is listed as “no effect on food intake”.

With GLP-1(7-36)amide, in the test with Mice [1] (1 mg/kg subcutaneous, 30 min after injection), the “Suppression of feeding (Complan consumption)” value came out at 45%. Besides, the “Maximum effect, suppression of feeding (Complan consumption)” value in the test on Mice [1] (20 mg/kg subcutaneous (highest dose tested)) was 60%. The “Suppression of sucrose consumption” value in the test with Mice [2] was 60%.

Turning to “GLP-1: literature GLP-1 of b7; b6: proglucagon fragment 72-108 commonly referred to as GLP-1(1-37) or just GLP-1”, the “Satiety (visual analogue scale rating)” value in the test on Healthy human volunteers (p = 0.006) is reported as “GLP-1 > Saline, p = 0.006”. In addition, in the test with Healthy human volunteers (p = 0.007), the “Appetite (visual analogue scale rating)” value is recorded as “GLP-1 < Saline, p = 0.007” and the “Hunger (visual analogue scale rating)” value was “GLP-1 < Saline, p = 0.007”. The “Fullness (visual analogue scale rating)” value in the test with Healthy human volunteers (p = 0.010) was “GLP-1 > Saline, p = 0.010”.
